Data from US6436929B1 (Wyeth, priority 1999, dated 2002).
“And” between values parts separate entries of the source, which are not always exact repeats. Equal entries are not always repeated.

Experiments:
[1] = system: rat uterine decidualization; experiment: Rat decidualization assay; assay type: in vivo; details: s.c.; for Estimated average EC50: average over dose-response curves; for EC50: ovariectomized rats, uterine wet weight/decidual response, individual studies (Exp)
Description: The animals are treated once daily for seven days.
Uteri are removed and trimmed of fat.
Decidual response: [(D−C)/C]×100%

human PR = target: T1, human PR (Homo sapiens, UniProt P06401); experiment: PRE-luciferase assay in CV-1 cells co-transfected with human PR and PRE-luciferase plasmids; assay type: cell-based; details: agonist mode, PRE-luciferase in CV-1 cells, Table 1; read-out: hPR CV-1 EC50
T1 construct: expressed in transfected cells; host or cells: CV-1 cells (electroporation with pLEM-hPR-B and pGL3-2xPRE-luciferase)
T1 sequence (P06401 1-933): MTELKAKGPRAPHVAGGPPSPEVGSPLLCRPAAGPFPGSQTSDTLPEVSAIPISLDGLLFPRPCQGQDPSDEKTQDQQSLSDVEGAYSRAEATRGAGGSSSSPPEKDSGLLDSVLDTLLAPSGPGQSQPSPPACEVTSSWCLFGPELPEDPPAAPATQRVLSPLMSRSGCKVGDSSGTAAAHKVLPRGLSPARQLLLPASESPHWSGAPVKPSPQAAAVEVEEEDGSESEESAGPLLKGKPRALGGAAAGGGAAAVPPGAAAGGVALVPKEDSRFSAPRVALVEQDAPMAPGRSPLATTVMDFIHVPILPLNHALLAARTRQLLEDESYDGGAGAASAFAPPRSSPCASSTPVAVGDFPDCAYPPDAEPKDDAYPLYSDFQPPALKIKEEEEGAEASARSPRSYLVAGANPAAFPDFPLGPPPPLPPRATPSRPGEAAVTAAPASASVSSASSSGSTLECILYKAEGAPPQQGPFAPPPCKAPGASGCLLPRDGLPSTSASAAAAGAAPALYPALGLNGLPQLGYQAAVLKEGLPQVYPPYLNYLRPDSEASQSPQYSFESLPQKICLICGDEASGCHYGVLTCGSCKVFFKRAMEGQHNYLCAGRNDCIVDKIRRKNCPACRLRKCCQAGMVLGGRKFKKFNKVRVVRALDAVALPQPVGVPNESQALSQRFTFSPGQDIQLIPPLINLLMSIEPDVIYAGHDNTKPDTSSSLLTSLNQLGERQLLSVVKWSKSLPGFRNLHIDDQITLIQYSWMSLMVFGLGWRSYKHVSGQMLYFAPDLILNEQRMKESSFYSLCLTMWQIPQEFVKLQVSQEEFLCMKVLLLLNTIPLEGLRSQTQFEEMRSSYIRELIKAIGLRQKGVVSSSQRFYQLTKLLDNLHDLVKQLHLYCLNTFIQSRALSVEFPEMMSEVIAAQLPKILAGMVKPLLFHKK
Description: The object of this assay is to determine a compound's progestational or antiprogestational potency based on its effect on PRE-luciferase reporter activity in CV-1 cells co-transfected with human PR and PRE-luciferase plasmids. The materials methods used in the assay are as follows.
Electroporation is carried out at 260 V and […] in a Biorad Gene Pulser II. After electroporation, cells are resuspended in growth medium and plated in 96-well plate at 40,000 cells/well in 200 μl. Following overnight incubation, the medium is changed to experimental medium Cells are then treated with reference or test compounds in experimental medium. […] Twenty-four hr. after treatment, the medium is discarded, cells are washed three times with D-PBS (GIBCO, BRL). Fifty μl of cell lysis buffer (Promega, Madison, Wis.) is added to each well and the plates are shaken for 15 min in a Titer Plate Shaker (Lab Line Instrument, Inc.).
Each treatment consists of at least 4 replicates. Log transformed data are used for analysis of variance and nonlinear dose response curve fitting for both agonist and antagonist modes. Huber weighting is used to downweight the effects of outliers. EC50 or IC50 values are calculated from the retransformed values.

T47D cells = experiment: T47D cell proliferation assay (BrdU incorporation); assay type: cell-based; details: half-maximal increase in BrdU incorporation, individual studies (Exp)
Description: The objective of this assay is the determination of progestational and antiprogestational potency by using a cell proliferation assay in T47D cells. A compound's effect on DNA synthesis in T47D cells is measured.
DMEM:F12(1:1) (GIBCO, BRL) supplemented with 10% (v/v) fetal bovine serum (not heat-inactivated), 100 U/ml penicillin, […], and 2 mM GlutaMax (GIBCO, BRL).
Minimum Essential Medium (MEM) (#51200-038GIBCO, BRL) phenol red-free supplemented with 0.5% charcoal stripped fetal bovine serum, 100 U/ml penicillin, […] streptomycin, and 2 mM GlutaMax (GIBCO, BRL). […]
At the end of BrdU labeling, the medium is removed and BrdU incorporation is measured using a cell proliferation ELISA kit (#RPN 250, Amersham Life Science) according to manufacturer's instructions. […] Then 25 μl of 1 M sulfuric acid is added to each well to stop color reaction and optical density is read in a plate reader at 450 nm within 5 min.
Square root-transformed data are used for analysis of variance and nonlinear dose response curve fitting for both agonist and antagonist modes. […] EC50 or IC50 values are calculated from the retransformed values. […]

Ovulation = Ovulation inhibition; assay type: in vivo; details: Table 1

For `C#C[C@]1(O)CC[C@H]2[C@@H]3CCC4=CC(=O)CC[C@@H]4[C@H]3CC[C@@]21CC` [Levonorgestrel], the “Estimated average EC50” value [1] was 0.10 mg/kg and the EC50 [1] was 0.08 mg/kg and 0.12 mg/kg and 0.09 mg/kg (2×).
`CC1(C)OC(=S)Nc2ccc(-c3cc(F)cc(C#N)c3)cc21` [Compound 3, 3-(4,4-Dimethyl-2-thioxo-1,4-dihydro-2H-benzo[d][1,3]oxazin-6-yl)-5-fluorobenzonitrile] gave an EC50 (human PR) of 5.1 nM.
With `CC(=O)O[C@]1(C(C)=O)CC[C@H]2[C@@H]3C[C@H](C)C4=CC(=O)CC[C@]4(C)[C@H]3CC[C@@]21C` [MPA, medroxyprogesterone acetate] the EC50 (T47D cells; Homo sapiens, T47D) was 0.019 nM.
With `C#C[C@]1(O)CC[C@H]2[C@@H]3CCC4=CC(=O)CC[C@@H]4[C@H]3C(=C)C[C@@]21CC` [3-Ketodesogestrel] the “Estimated average EC50” value [1] was 0.10 mg/kg and the EC50 [1] was 0.10 mg/kg and 0.06 mg/kg and 0.11 mg/kg.
In the case of `CC1(C)OC(=S)Nc2ccc(-c3csc(C#N)c3)cc21` [Compound 2, 4-(4,4-Dimethyl-2-thioxo-1,4-dihydro-2H-benzo[d][1,3]oxazin-6-yl)-thiophene-2-carbonitrile], the EC50 (human PR) is reported as 0.3 nM, the “Ovulation Inhibition ED100” value (Ovulation) is reported as 1 mg/kg and the melting point is reported as 242 to 243 °C.
`CC1(C)OC(=S)Nc2ccc(-c3cccc(Cl)c3)cc21` [Compound 1, 6-(3-Chlorophenyl)-4,4-dimethyl-1,4-dihydro-benzo[d][1,3]oxazin-2-thione] gave an EC50 (human PR) of 0.65 nM and a melting point of 183 to 184 °C.
For `C[C@H](O)C(=O)[C@@]1(C)CC[C@H]2[C@@H]3CCC4=CC(=O)CCC4=C3CC[C@@]21C` [Trimegestone], the EC50 (T47D cells) was 0.017 nM and 0.014 nM and 0.019 nM.
With `CCC1(CC)OC(=S)Nc2ccc(-c3cccc(Cl)c3)cc21` [Example 51, 6-(3-Chlorophenyl)-4,4-diethyl-1,4-dihydro-2H-3,1-benzoxazine-2-thione] the melting point was 148 to 150 °C.
